Results published in patent US9796733B2, “Imidazo-pyrazine derivatives useful as soluble guanylate cyclase activators” (Merck Sharp & Dohme Corp., priority 2014, dated 2017).

Molecular target: T1, sGC α1/β1 heterodimer (Homo sapiens, UniProt Q02108+Q02153)
T1 construct: expressed in transfected cells; host or cells: CHO-K1 (clone #7, CHO-K1/sGC)
T1 sequence (Q02108 1-690): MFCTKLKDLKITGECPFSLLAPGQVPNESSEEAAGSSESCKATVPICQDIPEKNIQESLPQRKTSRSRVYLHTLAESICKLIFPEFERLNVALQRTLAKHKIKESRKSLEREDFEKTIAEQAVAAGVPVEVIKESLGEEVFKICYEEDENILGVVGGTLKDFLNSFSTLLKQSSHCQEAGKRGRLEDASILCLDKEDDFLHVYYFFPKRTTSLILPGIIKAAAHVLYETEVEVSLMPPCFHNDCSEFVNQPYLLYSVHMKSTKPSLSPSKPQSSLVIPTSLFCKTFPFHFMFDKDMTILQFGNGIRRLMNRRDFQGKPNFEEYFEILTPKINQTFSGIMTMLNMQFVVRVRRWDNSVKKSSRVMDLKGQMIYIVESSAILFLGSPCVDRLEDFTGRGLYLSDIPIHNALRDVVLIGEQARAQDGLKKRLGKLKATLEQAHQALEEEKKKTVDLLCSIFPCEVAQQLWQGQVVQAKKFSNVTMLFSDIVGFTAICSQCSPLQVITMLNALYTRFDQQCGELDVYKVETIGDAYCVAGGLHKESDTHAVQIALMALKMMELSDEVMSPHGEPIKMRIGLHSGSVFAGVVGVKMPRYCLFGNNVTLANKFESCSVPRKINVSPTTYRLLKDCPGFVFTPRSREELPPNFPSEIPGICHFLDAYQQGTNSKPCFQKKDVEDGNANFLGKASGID
T1 sequence (Q02153 1-619): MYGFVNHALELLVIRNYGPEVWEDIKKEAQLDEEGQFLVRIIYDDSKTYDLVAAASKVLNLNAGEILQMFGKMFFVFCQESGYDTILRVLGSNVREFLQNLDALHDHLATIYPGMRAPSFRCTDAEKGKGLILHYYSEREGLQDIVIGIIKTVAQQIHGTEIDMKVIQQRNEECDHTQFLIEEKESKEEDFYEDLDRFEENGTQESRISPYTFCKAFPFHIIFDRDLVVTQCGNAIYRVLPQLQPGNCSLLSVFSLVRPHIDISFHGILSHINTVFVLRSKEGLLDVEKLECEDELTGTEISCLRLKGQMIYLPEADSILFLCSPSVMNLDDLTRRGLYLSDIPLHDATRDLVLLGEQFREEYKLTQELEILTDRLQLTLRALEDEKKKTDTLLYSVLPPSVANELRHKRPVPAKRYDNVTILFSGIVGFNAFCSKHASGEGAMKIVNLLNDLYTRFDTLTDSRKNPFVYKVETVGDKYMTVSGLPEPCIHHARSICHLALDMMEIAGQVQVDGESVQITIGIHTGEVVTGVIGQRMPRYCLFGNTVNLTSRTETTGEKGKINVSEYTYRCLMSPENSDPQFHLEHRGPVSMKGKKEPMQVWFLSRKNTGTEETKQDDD
Test: Cell-based sGC functional assay (CASA assay): cGMP generation in CHO-K1/sGC cells, HTRF detection
Conditions: for Emax: CHO-K1, percent activation relative to standard Compound A in CHO-K1/sGC cells, read-out: % Act.; for EC50: inflection point (IP) of cGMP generation in CHO-K1/sGC cells, 4P fit, activity expressed as percentage of Compound A
Procedure, shortened: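 cGMP was quantified by HTRF after 1 hr, 37° C exposure of thawed CHO-K1 cells expressing sGC α1/β1 to compound, with or without 1 μM DETA-NO. IBMX (0.5 mM) blocked cGMP breakdown, and DMSO was 2.5% final. Percent of standard Compound A's maximal cGMP was fitted (4P) for inflection point.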

| Compound | Emax [%] | EC50 [nM] |
| --- | --- | --- |
| CC1(c2ccccc2)C(=O)Nc2nc(-c3cn4c(Br)cnc4c(CCC(F)(F)F)n3)nc(N)c21 (stereo not drawn) [Example 265B, 4-amino-2-(3-bromo-8-(3,3,3-trifluoropropyl)imidazo[1,2-a]pyrazin-6-yl)-5-methyl-5-phenyl-5H-pyrrolo[2,3-d]pyrimidin-6(7H)-one] | 121 | 648 |
| CC1(c2ccc(Cl)cn2)C(=O)Nc2nc(-c3cn4ccnc4c(CC4CCC4)n3)nc(N)c21 (stereo not drawn) [Example 116A, 4-amino-5-(5-chloropyridin-2-yl)-2-(8-(cyclobutylmethyl)imidazo [1,2-a]pyrazin-6-yl)-5-methyl-5H-pyrrolo[2,3-d]pyrimidin-6(7H)-one] | 79 | 10 |
| COC(=O)c1cccc(C2(C)C(=O)Nc3nc(-c4cn5ccnc5c(CCC(F)(F)C(F)(F)F)n4)nc(N)c32)c1 (single isomer, unassigned) [Example 270B, Methyl 3-(4-amino-5-methyl-6-oxo-2-(8-(3,3,4,4,4-pentafluorobutyl)imidazo[1,2-a]pyrazin-6-yl)-6,7-dihydro-5H-pyrrolo[2,3-d]pyrimidin-5-yl)benzoate] | 101 | 319 |
| Cc1nc2c(CCC(F)(F)C(F)(F)F)nc(-c3nc(N)c4c(n3)NC(=O)C4(C)c3ccc(F)cc3)cn2c1C (stereo not drawn) [Example 177A, 4-amino-2-(2,3-dimethyl-8-(3,3,4,4,4-pentafluorobutyl)imidazo [1,2-a]pyrazin-6-yl)-5-(4-fluorophenyl)-5-methyl-5H-pyrrolo[2,3-d]pyrimidin-6(7H)-one] | 107 | 129 |
| CC1(C)C(=O)Nc2nc(-c3cn4ccnc4c(Cc4ccc(F)cc4)n3)nc(N)c21 [Example 72, 4-amino-2-(8-(4-fluorobenzyl)imidazo[1,2-a]pyrazin-6-yl)-5,5-dimethyl-5H-pyrrolo[2,3-d]pyrimidin-6(7H)-one] | 126 | 342 |
| CCCCc1nc(-c2nc(N)c3c(n2)NC(=O)C3(C)c2ccc(Cl)cn2)cn2c(C)cnc12 (stereo not drawn) [Example 169A, 4-amino-2-(8-butyl-3-methylimidazo[1,2-a]pyrazin-6-yl)-5-(5-chloropyridin-2-yl)-5-methyl-5H-pyrrolo[2,3-d]pyrimidin-6(7H)-one] | 75 | 19 |
| CCCCc1nc(-c2nc(N)c3c(n2)NC(=O)C3(c2ccc(F)cc2)C2CCC2)cn2ccnc12 (single isomer, unassigned) [Example 361B, 4-amino-2-(8-butylimidazo[1,2-a]pyrazin-6-yl)5-cyclobutyl-5-(4-fluorophenyl)-5H-pyrrolo[2,3-d]pyrimidin-6(7H)-one] | 157 | 47 |
| CC1(C)C(=O)Nc2nc(-c3cn4ccnc4c(Cc4cccc(C#N)c4)n3)nc(N)c21 [Example 272, 3-((6-(4-Amino-5,5-dimethyl-6-oxo-6,7-dihydro-5H-pyrrolo[2,3-d]pyrimidin-2-yl)imidazo[1,2-a]pyrazin-8-yl)methyl)benzonitrile] | 114 | 367 |
| CC1(c2ccc(F)cc2)C(=O)Nc2nc(-c3cn4ccnc4c(CCc4cccc(F)c4)n3)nc(N)c21 (stereo not drawn) [Example 4A, 4-amino-2-(8-(3-fluorophenethyl)imidazo[1,2-a]pyrazin-6-yl)-5-(4-fluorophenyl)-5-methyl-5H-pyrrolo[2,3-d]pyrimidin-6(7H)-one] | 123 | 32 |
| Cn1cc(C2(C)C(=O)Nc3nc(-c4cn5ccnc5c(Cc5ccc(F)cc5)n4)nc(N)c32)cn1 (stereo not drawn) [Example 88B, 4-amino-2-(8-(4-fluorobenzyl)imidazo[1,2-a]pyrazin-6-yl)-5-methyl-5-(1-methyl-1H-pyrazol-4-yl)-5H-pyrrolo[2,3-d]pyrimidin-6(7H)-one] | 79 | 224 |
| CC(C)Cc1nc(-c2nc(N)c3c(n2)NC(=O)C3(C)c2ccc(Cl)cn2)cn2ccnc12 (stereo not drawn) [Example 125A, 4-amino-5-(5-chloropyridin-2-yl)-2-(8-isobutylimidazo[1,2-a]pyrazin-6-yl)-5-methyl-5H-pyrrolo[2,3-d]pyrimidin-6(7H)-one] | 97 | 41 |
| CC1(C)CN(c2nc(-c3cn4ccnc4c(CCC(F)(F)C(F)(F)F)n3)nc3c2C(C)(c2ccc(F)cc2)C(=O)N3)C1 (stereo not drawn) [Example 302A, 4-(3,3-dimethylazetidin-1-yl)-5-(4-fluorophenyl)-5-methyl-2-(8-(3,3,4,4,4-pentafluorobutyl)imidazo[1,2-a]pyrazin-6-yl)-5H-pyrrolo[2,3-d]pyrimidin-6(7H)-one] | 105 | 551 |
| Cc1nc(C2(C3CC3)C(=O)Nc3nc(-c4cn5ccnc5c(CCCC(F)(F)F)n4)nc(N)c32)ccc1Cl (single isomer, unassigned) [Example 377B] | 90 | 86 |
| CC(C)c1nnc(C2(C3CC3)C(=O)Nc3nc(-c4cn5ccnc5c(CCC(F)(F)C(F)(F)F)n4)nc(N)c32)s1 (stereo not drawn) [Example 55A, 4-amino-5-cyclopropyl-5-(5-isopropyl-1,3,4-thiadiazol-2-yl)-2-(8-(3,3,4,4,4-pentafluorobutyl)imidazo[1,2-a]pyrazin-6-yl)-5H-pyrrolo[2,3-d]pyrimidin-6(7H)-one] | 93 | 634 |
| CN1CCN(c2nc(-c3cn4ccnc4c(CCC(F)(F)C(F)(F)F)n3)nc3c2C(C)(c2ccc(F)cn2)C(=O)N3)CC1 (stereo not drawn) [Example 295B, 5-(5-fluoropyridin-2-yl)-5-methyl-4-(4-methylpiperazin-1-yl)-2-(8-(3,3,4,4,4-pentafluorobutyl)imidazo[1,2-a]pyrazin-6-yl)-5H-pyrrolo[2,3-d]pyrimidin-6(7H)-one] | 96 | 671 |
| CC(C)Cc1nc(-c2nc(N)c3c(n2)NC(=O)C3(c2ccc(Cl)cc2)C2CC2)cn2ccnc12 (stereo not drawn) [Example 22B, 4-amino-5-(4-chlorophenyl)-5-cyclopropyl-2-(8-isobutylimidazo[1,2-a]pyrazin-6-yl)-5H-pyrrolo[2,3-d]pyrimidin-6(7H)-one] | 91 | 150 |
| CC(C)(C)CCc1nc(-c2nc(N)c3c(n2)NC(=O)C3(C)c2ccc(F)cc2)cn2ccnc12 (stereo not drawn) [Example 121A, 4-amino-2-(8-(3,3-dimethylbutyl)imidazo[1,2-a]pyrazin-6-yl)-5-(4-fluorophenyl)-5-methyl-5H-pyrrolo[2,3-d]pyrimidin-6(7H)-one] | 145 | 56 |
| CC(C)Cc1nc(-c2nc(N)c3c(n2)NC(=O)C3(C)c2ccc(F)cc2)cn2ccnc12 (stereo not drawn) [Example 19A, 4-amino-5-(4-fluorophenyl)-2-(8-isobutylimidazo[1,2-a]pyrazin-6-yl)-5-methyl-5H-pyrrolo[2,3-d]pyrimidin-6(7H)-one] | 113 | 387 |
| C[C@@H]1CN(c2nc(-c3cn4ccnc4c(CCC(F)(F)C(F)(F)F)n3)nc3c2C(C)(c2ccc(F)cc2)C(=O)N3)C[C@H](C)O1 (stereo partly drawn) [Example 303A, 4-((2R,6S)-2,6-dimethylmorpholino)-5-(4-fluorophenyl)-5-methyl-2-(8-(3,3,4,4,4-pentafluorobutyl)imidazo[1,2-a]pyrazin-6-yl)-5H-pyrrolo[2,3-d]pyrimidin-6(7H)-one] | 101 | 425 |
| CC1(c2ccc(Cl)cc2)C(=O)Nc2nc(-c3cn4ccnc4cn3)nc(NCCC(F)(F)F)c21 (stereo not drawn) [Example 289A, 5-(4-chlorophenyl)-2-(imidazo[1,2-a]pyrazin-6-yl)-5-methyl-4-((3,3,3-trifluoropropyl)amino)-5H-pyrrolo[2,3-d]pyrimidin-6(7H)-one] | 106 | 289 |
| CC1(C2CC2)C(=O)Nc2nc(-c3cn4ccnc4c(Cc4ccccc4)n3)nc(N)c21 (stereo not drawn) [Example 82A, 4-amino-2-(8-benzylimidazo[1,2-a]pyrazin-6-yl)-5-cyclopropyl-5-methyl-5H-pyrrolo[2,3-d]pyrimidin-6(7H)-one] | 120 | 90 |
